Measurements as given in patent US7629348B2, “Heterocyclic amide and imine derivatives, processes for their preparation, compositions comprising them and their use as pesticides” (Merial Limited, priority 2001, dated 2009).

Assays:
[1] = tested on: black bean aphids (Aphis fabae); experiment: Dip test: field bean plants (Vicia faba) and aphids dipped into solution of preparation, aphid mortality; settings: plants and aphids dipped 5 seconds; after 3 and 6 days of storage; concentration 500 ppm or less
Method: Germinated field bean seeds (Vicia faba) with seed roots were transferred into brown glass bottles filled with tap water and then populated with about 100 black bean aphids (Aphis fabae). Plants and aphids were then dipped into an aqueous solution of the formulated preparation to be examined for 5 seconds. After they had drained, plants and animals were stored in a climatized chamber (16 hours of light/day, 25° C., 40-60% relative atmospheric humidity). After 3 and 6 days of storage, the mortality of the preparation on the aphids was determined.

[2] = tested on: black bean aphids (Aphis fabae); experiment: Root-systemic test: solution pipetted into bottle with field bean (Vicia faba), aphid mortality; settings: 4 ml aqueous solution pipetted into bottle; after 3 and 6 days of storage; concentration 500 ppm or less
Method: Germinated field bean seeds (Vicia faba) with seed roots were transferred into brown glass bottles filled with tap water. Four milliliters of an aqueous solution of the formulated preparation to be examined were pipetted into the brown glass bottle. The field bean was then heavily populated with about 100 black bean aphids (Aphis fabae). Plants and aphids were then stored in a climatized chamber (16 hours of light/day, 25° C., 40-60% relative atmospheric humidity). After 3 and 6 days of storage, the root-systemic effect of the preparation as aphid mortality was determined.

Cc1ccc(SN(C(=O)c2cnccc2C(F)(F)F)C(C)C)cc1 [Example 6]
mortality of the preparation on the aphids [1]: active | root-systemic effect of the preparation as aphid mortality [2]: active

CCCCCSNC(=O)c1cnccc1C(F)(F)F [Example 48]
mortality of the preparation on the aphids [1]: active | root-systemic effect of the preparation as aphid mortality [2]: active

O=C(NSc1ccccc1)c1cnccc1C(F)(F)F [Example 2]
mortality of the preparation on the aphids [1]: active | root-systemic effect of the preparation as aphid mortality [2]: active

CC(C)N(Sc1ccccc1)C(=O)c1cnccc1C(F)(F)F [Example 4]
mortality of the preparation on the aphids [1]: active | root-systemic effect of the preparation as aphid mortality [2]: active

O=C(NSc1ccc(Cl)cc1)c1cnccc1C(F)(F)F [Example 18]
mortality of the preparation on the aphids [1]: active | root-systemic effect of the preparation as aphid mortality [2]: active

CCCCCCSNC(=O)c1cnccc1C(F)(F)F [Example 49]
mortality of the preparation on the aphids [1]: active | root-systemic effect of the preparation as aphid mortality [2]: active

O=C(NSC1CC1)c1cnccc1C(F)(F)F [Example 98]
mortality of the preparation on the aphids [1]: active | root-systemic effect of the preparation as aphid mortality [2]: active

C=CCSNC(=O)c1cnccc1C(F)(F)F [Example 44]
mortality of the preparation on the aphids [1]: active | root-systemic effect of the preparation as aphid mortality [2]: active

CCCCCCCSNC(=O)c1cnccc1C(F)(F)F [Example 50]
mortality of the preparation on the aphids [1]: active | root-systemic effect of the preparation as aphid mortality [2]: active

O=C(NSc1ccc(F)cc1)c1cnccc1C(F)(F)F [Example 23]
mortality of the preparation on the aphids [1]: active | root-systemic effect of the preparation as aphid mortality [2]: active

O=C(NSC1CCCC1)c1cnccc1C(F)(F)F [Example 1]
mortality of the preparation on the aphids [1]: active | root-systemic effect of the preparation as aphid mortality [2]: active

CC(C)CCSNC(=O)c1cnccc1C(F)(F)F [Example 45]
mortality of the preparation on the aphids [1]: active | root-systemic effect of the preparation as aphid mortality [2]: active

CCN(Sc1ccccc1)C(=O)c1cnccc1C(F)(F)F [Example 3]
mortality of the preparation on the aphids [1]: active | root-systemic effect of the preparation as aphid mortality [2]: active

O=C(NSCc1ccc(C(F)(F)F)cc1)c1cnccc1C(F)(F)F [Example 84]
mortality of the preparation on the aphids [1]: active | root-systemic effect of the preparation as aphid mortality [2]: active

CC(C)SN=C(OCCC(C)[N+](=O)[O-])c1cnccc1C(F)(F)F (stereo not shown) [Example 124]
mortality of the preparation on the aphids [1]: active | root-systemic effect of the preparation as aphid mortality [2]: active

O=C(NSC1CCCCC1)c1cnccc1C(F)(F)F [Example A, N-cyclohexylthio-(4-trifluoromethyl)nicotinamide]
mortality of the preparation on the aphids [1]: active | root-systemic effect of the preparation as aphid mortality [2]: active

CC(C)SNC(=O)c1cnccc1C(F)(F)F [Example 29]
mortality of the preparation on the aphids [1]: active | root-systemic effect of the preparation as aphid mortality [2]: active

CCC(C)CSNC(=O)c1cnccc1C(F)(F)F (stereo not shown) [Example 38]
mortality of the preparation on the aphids [1]: active | root-systemic effect of the preparation as aphid mortality [2]: active

CCC(C)SNC(=O)c1cnccc1C(F)(F)F (stereo not shown) [Example B, N-(2-butylthio)-(4-trifluoromethyl)nicotinamide]
mortality of the preparation on the aphids [1]: active | root-systemic effect of the preparation as aphid mortality [2]: active

O=C(NSCc1cccc(C(F)(F)F)c1)c1cnccc1C(F)(F)F [Example 85]
mortality of the preparation on the aphids [1]: active | root-systemic effect of the preparation as aphid mortality [2]: active
